Test results: patent publication US20110009335A1, “Anticancer Treatments” (priority 2008, published 2011)
Starred links: 1 amine or outer side, 2 acyl side, 3 side chain; linkers in the order of their positions; H or OH if unused. Positions of bridges follow the written chain, without caps; N, C: chain ends. Non-standard residues stand in square brackets, D forms with d. Residues, ends and D or L forms follow the SMILES beside them. *: point of attachment. X1 = CC[C@H](C)[C@@H](N[*:1])[C@@H](O)CC(=O)O[C@H](C(=O)[C@H](C)C(=O)[*:2])C(C)C; NMeY = CN[C@@H](Cc1ccc(O)cc1)C(=O)O; dNMeL = CN[C@H](CC(C)C)C(=O)O; Pyruvoyl = CC(=O)C(=O)*

Experiments:
[1] = system: CAKI-1 human renal tumor xenograft; assay: Aplidine with sunitinib, CAKI-1 xenograft in athymic nude mice (Example 2); assay type: in vivo; details: doses and schedules tested
Method: (§1) Female athymic nude mice (Harlan Sprague Dawley, Madison, Wis.) were utilized for all experiments. Mice were implanted with tumor fragments or a cell suspension when mice were 5 weeks of age. Animals were housed in ventilated rack caging, 5 mice per cage, with food and water ad libitum. The mice were acclimated for 1 week prior to being implanted with tumor fragments or cell suspensions.
Cells from in vitro passage 4-20 were implanted SC into study mice: 5×10^6 cells/mouse in 0.2 ml 50% Matrigel/50% medium without antibiotics or serum, using a 23 G needle and 1 cc syringe. Bacterial cultures were performed on aliquots of the cells prepared for implantation.
(§2) Tumor measurements were determined as disclosed in Example 1.
Body weights were recorded on treatment days and when tumor sizes were measured. In those days wherein the two drugs were administered the same day, the combination therapy groups were treated by co-administering the two drugs at the same time, with no attempt to sequence the treatments. […]
(§3) Tumor size measurements were recorded twice weekly from the treatment initiation until the termination of the study.
(§4) Mean, standard deviation and standard error of the mean were determined for tumor volume for all animal groups at all assessments. […]

[2] = system: A498 human renal tumor xenograft; assay: Aplidine with sunitinib, A498 xenograft in athymic nude mice (Example 2); assay type: in vivo; details: doses tested; sunitinib 40 mg/kg
Method: as §1, §2
(§5) Body weights were recorded on treatment days and when tumor sizes were measured. In those days wherein the two drugs were administered the same day, the combination therapy groups were treated by co-administering the two drugs at the same time, with no attempt to sequence the treatments.
(§6) Aplidine was provided in the form of vials of lyophilized aplidine powder which was reconstituted in Cremophor EL/ethanol/water (CEW) 15/15/70 to a concentration of 0.5 mg/ml. The aplidine solution in CEW was diluted in 0.9% Saline to the dosing formulation concentrations, being the final proportion of CEW of 0.18/0.18/0.84. […]
as §3, §4

[3] = system: AML and ALL samples from pediatric patients; details: de novo or relapsed ALL and AML; cited from earlier work
[4] = system: MRI-H-121 human renal tumor xenograft; assay: Aplidine with sunitinib, MRI-H-121 xenograft in athymic nude mice (Example 2); assay type: in vivo; details: doses and schedules tested
Method: as §1, §2, §5, §6, §3, §4

SMILES: CC[C@H](C)[C@H]1NC(=O)[C@@H](NC(=O)[C@@H](CC(C)C)N(C)C(=O)[C@@H]2CCCN2C(=O)C(C)=O)[C@@H](C)OC(=O)[C@H](Cc2ccc(OC)cc2)N(C)C(=O)[C@@H]2CCCN2C(=O)[C@H](CC(C)C)NC(=O)[C@@H](C)C(=O)[C@H](C(C)C)OC(=O)C[C@@H]1O [aplidine, dehydrodidemnin B] (Pyruvoyl-P[dNMeL]T[X1]LP[NMeY](Me); ester 3-C)
- antitumor activity as single agent (monotherapy) [1]: inactive
- antitumor activity as single agent (monotherapy) [2]: no effect
- concentration with in vitro cytotoxic activity [3]: 5 nM
- antitumor activity as single agent (monotherapy) [4]: refractory
